Data: the supplement of paper PMC11061612

Assays:
Experiment in all cases: combination Emax (second highest fraction inhibited in the dose matrix, 72 h); higher = more inhibition; extreme values may be limits of the assay
[1] = system: BE-13 (T-Lymphoblastic Leukemia)
Procedure, shortened: (§1)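 Bliss excess equals the observed combination effect minus the expected value EA + EB − EA·EB, where EA and EB are the effects of each agent alone. Combination Emax is the second-highest inhibition within the matrix. Inhibition was scaled from CellTiter-Glo 2.0 luminescence, with 0 set by vehicle wells and 1 by blank wells, after 72 hours of two-drug dosing of cells plated in 1536-well plates.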

[2] = system: HuH-7 (Hepatocellular Carcinoma)
Procedure, shortened: as §1

[3] = system: LNZTA3WT4 (Low Grade Glioma)
Procedure, shortened: as §1

[4] = system: ESS-1 (Other Solid Carcinomas)
Procedure, shortened: as §1

CAL-72 (Osteosarcoma) = system: CAL-72 (Osteosarcoma)
Procedure, shortened: as §1

GAMG (Glioblastoma) = system: GAMG (Glioblastoma)
Procedure, shortened: as §1

[5] = system: SW1710 (Bladder Carcinoma)
Procedure, shortened: as §1

[6] = system: YAPC (Pancreatic Carcinoma)
Procedure, shortened: as §1

LOXIMVI (Melanoma) = system: LOXIMVI (Melanoma)
Procedure, shortened: as §1

[7] = system: FTC-133 (Thyroid Gland Carcinoma)
Procedure, shortened: as §1

EW-11 (Ewing's Sarcoma) = system: EW-11 (Ewing's Sarcoma)
Procedure, shortened: as §1

[8] = system: OE21 (Esophageal Squamous Cell Carcinoma)
Procedure, shortened: as §1

BE2-M17 (Neuroblastoma) = system: BE2-M17 (Neuroblastoma)
Procedure, shortened: as §1

A673 (Ewing's Sarcoma) = system: A673 (Ewing's Sarcoma)
Procedure, shortened: as §1

[9] = system: HuCCT1 (Biliary Tract Carcinoma)
Procedure, shortened: as §1

[10] = system: NCI-H524 (Small Cell Lung Carcinoma)
Procedure, shortened: as §1

[11] = system: NUGC-4 (Gastric Carcinoma)
Procedure, shortened: as §1

[12] = system: NCI-H209 (Small Cell Lung Carcinoma)
Procedure, shortened: as §1

[13] = system: OVCAR-5 (Ovarian Carcinoma)
Procedure, shortened: as §1

[14] = system: SAS (Oral Cavity Carcinoma)
Procedure, shortened: as §1

Row | Structure (SMILES) | combination Emax [1] | combination Emax [2] | combination Emax [3] | combination Emax [4] | combination Emax (CAL-72 (Osteosarcoma)) | combination Emax (GAMG (Glioblastoma)) | combination Emax [5] | combination Emax [6] | combination Emax (LOXIMVI (Melanoma)) | combination Emax [7] | combination Emax (EW-11 (Ewing's Sarcoma)) | combination Emax [8] | combination Emax (BE2-M17 (Neuroblastoma)) | combination Emax (A673 (Ewing's Sarcoma)) | combination Emax [9] | combination Emax [10] | combination Emax [11] | combination Emax [12] | combination Emax [13] | combination Emax [14]
1 | Cc1nc(Nc2ncc(C(=O)Nc3c(C)cccc3Cl)s2)cc(N2CCN(CCO)CC2)n1 [Dasatinib] + CC(=O)Nc1cccc(-n2c(=O)n(C3CC3)c(=O)c3c(Nc4ccc(I)cc4F)n(C)c(=O)c(C)c32)c1 [Trametinib] (first compound max 2 µM, 7x7, partner max 1 µM) | 0.607 | 0.662 | 0.329 | 0.776 | 0.545 | 0.476 | 0.77 | 0.7 | 1 | 0.261 | 0.157 | 0.723 | 0.868 | 0.237 | 0.772 | 0.0954 | 0.431 | 0.124 | 0.905 | 0.713
2 | COc1cc2c(cc1OCCCCCOc1cc3c(cc1OC)C(=O)N1C=C(C)C[C@H]1C=N3)N=C[C@@H]1CC(C)=CN1C2=O [SG3199] + O=C(c1cc(Cc2n[nH]c(=O)c3ccccc23)ccc1F)N1CCN(C(=O)C2CC2)CC1 [Olaparib] (first compound max 0.001 µM, 7x7, partner max 10 µM) | 0.283 | 0.12 | 0.0132 | 0.346 | 0.23 | 0.104 | 0.112 | 0.0017 | 0.187 | 0.134 | 0.582 | 0.133 | 0.299 | 0.563 | 0.0094 | 0.196 | 0.219 | 0.913 | 0.0819 | 0.164
3 | Cc1cc2ncnn2cc1Nc1ncc2c(n1)n(C1CCOCC1)c(=O)n2C [AZD7648] + C[C@@H]1COCCN1C2=NC(=NC(=C2)C3(CC3)[S@](=N)(=O)C)C4=C5C=CNC5=NC=C4 [AZD6738] (first compound max 10 µM, 7x7, partner max 10 µM) | 0.757 | 0.215 | 0.766 | 0.971 | 0.788 | 0.681 | 0.503 | 0.335 | 0.768 | 0.677 | 0.748 | 0.74 | 0.844 | 0.809 | 0.735 | 0.759 | 0.509 | 0.691 | 0.757 | 0.856
4 | Cc1cc2ncnn2cc1Nc1ncc2c(n1)n(C1CCOCC1)c(=O)n2C [AZD7648] + O=C(c1cc(Cc2n[nH]c(=O)c3ccccc23)ccc1F)N1CCN(C(=O)C2CC2)CC1 [Olaparib] (first compound max 10 µM, 7x7, partner max 10 µM) | 0.255 | 0.198 | 0.0958 | 0.402 | 0.322 | 0.11 | 0.0781 | 0.0464 | 0.479 | 0.259 | 0.582 | 0.354 | 0.414 | 0.585 | 0.185 | 0.365 | 0.202 | 0.917 | 0.231 | 0.213
5 | C[C@@H](c1ccc2nccn2c1)n1nnc2ncc(-c3cnn(C)c3)nc21 [Savolitinib] + CC1(C)CCC(CN2CCN(c3ccc(C(=O)NS(=O)(=O)c4ccc(NCC5CCOCC5)c([N+](=O)[O-])c4)c(Oc4cnc5[nH]ccc5c4)c3)CC2)=C(c2ccc(Cl)cc2)C1 [Venetoclax] (first compound max 1 µM, 7x7, partner max 1 µM) | 0.196 | 0.15 | 0.162 | 0.136 | 0.181 | 0.202 | 0.0997 | 0.113 | 0.232 | 0.17 | 0.213 | 0.0581 | 0.0964 | 0.309 | 0.107 | 0.13 | 0.167 | 0.373 | 0.0951 | 0.138
6 | CN(CCO)CC[C@H](CSc1ccccc1)Nc1ccc(S(=O)(=O)NC(=O)c2ccc(N3CCC([C@@H](O)c4ccccc4-c4ccc(Cl)cc4)CC3)cc2)cc1S(=O)(=O)C(F)(F)F [AZD4320] + C[C@@H]1COCCN1C2=NC(=NC(=C2)C3(CC3)[S@](=N)(=O)C)C4=C5C=CNC5=NC=C4 [AZD6738] (first compound max 1 µM, 7x7, partner max 10 µM) | 1 | 0.725 | 0.804 | 0.992 | 0.932 | 0.694 | 0.705 | 0.251 | 0.892 | 0.947 | 0.957 | 0.84 | 0.93 | 1 | 0.765 | 0.939 | 0.739 | 1 | 0.842 | 0.902
7 | COc1cc2ncnc(Nc3ccc(F)c(Cl)c3)c2cc1OCCCN1CCOCC1 [Gefitinib] + CC(C)n1c(=O)n(C)c2cnc3cc(F)c(-c4ccc(OCCCN5CCCCC5)nc4)cc3c21 [AZD1390] (first compound max 10 µM, 7x7, partner max 0.3 µM) | 0.266 | 0.114 | 0.129 | 0.153 | 0.109 | 0.106 | 0.228 | 0.197 | 0.32 | 0.0388 | 0.171 | 0.499 | 0.147 | 0.162 | 0.389 | 0.139 | 0.481 | 0.384 | 0.203 | 0.401
8 | Cc1cc2ncnn2cc1Nc1ncc2c(n1)n(C1CCOCC1)c(=O)n2C [AZD7648] + C=CCn1c(=O)c2cnc(Nc3ccc(N4CCN(C)CC4)cc3)nc2n1-c1cccc(C(C)(C)O)n1 [AZD1775] (first compound max 10 µM, partner max 1 µM) | 1 | 0.252 | 0.717 | 0.974 | 0.649 | 0.706 | 0.408 | 0.533 | 0.668 | 0.633 | 0.599 | 0.673 | 0.704 | 0.594 | 0.692 | 0.808 | 0.359 | 0.743 | 0.412 | 0.734
